Experimental data as given in PubChem BioAssay AID1259407 (Chemical Carcinogenesis Research Information System (CCRIS), 2018).
Activity calls are given as the source filed them. No rule for the calls is given here.

System: CCRIS mutagenicity, Ames/micronucleus/aberration tests
Experiment: CCRIS mutagenicity studies

COC(=O)C(c1ccccc1)C1CCCCN1 (centres undefined)
mutagenic call (End Point: IN VITRO CHROMOSOMAL ABERRATIONS, Test System: CHINESE HAMSTER OVARY CELLS, Metabolic Activation: NONE): inactive; negative | mutagenic call (End Point: IN VITRO CHROMOSOMAL ABERRATIONS, Test System: CHINESE HAMSTER OVARY CELLS, Metabolic Activation: RAT, LIVER, S-9, AROCLOR 1254): active; positive | mutagenic call (End Point: In vivo chromosomal aberrations, Test System: Peripheral blood lymphocytes, Species: Monkey, Strain/Sex: Rhesus/Male, Route: Oral): inactive; negative | mutagenic call (End Point: In vivo micronucleus, Test System: Peripheral blood lymphocytes, Species: Monkey, Strain/Sex: Rhesus/Male, Route: Oral): inactive; negative | mutagenic call (Test System: AMES SALMONELLA TYPHIMURIUM, Strain/Indicator: TA97, Metabolic Activation: HAMSTER, LIVER, S-9, AROCLOR 1254 (10 OR 30%), Method: PREINCUBATION): inactive; negative | mutagenic call (Test System: AMES SALMONELLA TYPHIMURIUM, Strain/Indicator: TA97, Metabolic Activation: NONE, Method: PREINCUBATION): inactive; negative | mutagenic call (Test System: AMES SALMONELLA TYPHIMURIUM, Strain/Indicator: TA97, Metabolic Activation: RAT, LIVER, S-9, AROCLOR 1254 (10 OR 30%), Method: PREINCUBATION): inactive; negative | mutagenic call (Test System: AMES SALMONELLA TYPHIMURIUM, Strain/Indicator: TA98, Metabolic Activation: HAMSTER, LIVER, S-9, AROCLOR 1254 (10%), Method: PREINCUBATION): inactive; negative | mutagenic call (Test System: AMES SALMONELLA TYPHIMURIUM, Strain/Indicator: TA98, Metabolic Activation: HAMSTER, LIVER, S-9, AROCLOR 1254 (30%), Method: PREINCUBATION): inactive; negative | mutagenic call (Test System: AMES SALMONELLA TYPHIMURIUM, Strain/Indicator: TA98, Metabolic Activation: NONE, Method: PREINCUBATION): inactive; negative | mutagenic call (Test System: AMES SALMONELLA TYPHIMURIUM, Strain/Indicator: TA98, Metabolic Activation: RAT, LIVER, S-9, AROCLOR 1254 (10%), Method: PREINCUBATION): inactive; negative | mutagenic call (Test System: AMES SALMONELLA TYPHIMURIUM, Strain/Indicator: TA98, Metabolic Activation: RAT, LIVER, S-9, AROCLOR 1254 (30%), Method: PREINCUBATION): inactive; negative | mutagenic call (Test System: AMES SALMONELLA TYPHIMURIUM, Strain/Indicator: TA100, Metabolic Activation: HAMSTER, LIVER, S-9, AROCLOR 1254 (10%), Method: PREINCUBATION): inactive; negative | mutagenic call (Test System: AMES SALMONELLA TYPHIMURIUM, Strain/Indicator: TA100, Metabolic Activation: HAMSTER, LIVER, S-9, AROCLOR 1254 (30%), Method: PREINCUBATION): inactive; negative | mutagenic call (Test System: AMES SALMONELLA TYPHIMURIUM, Strain/Indicator: TA100, Metabolic Activation: NONE, Method: PREINCUBATION): inactive; negative | mutagenic call (Test System: AMES SALMONELLA TYPHIMURIUM, Strain/Indicator: TA100, Metabolic Activation: RAT, LIVER, S-9, AROCLOR 1254 (10%), Method: PREINCUBATION): inactive; negative | mutagenic call (Test System: AMES SALMONELLA TYPHIMURIUM, Strain/Indicator: TA100, Metabolic Activation: RAT, LIVER, S-9, AROCLOR 1254 (30%), Method: PREINCUBATION): inactive; negative | mutagenic call (Test System: AMES SALMONELLA TYPHIMURIUM, Strain/Indicator: TA1535, Metabolic Activation: HAMSTER, LIVER, S-9, AROCLOR 1254 (10%), Method: PREINCUBATION): inactive; negative | mutagenic call (Test System: AMES SALMONELLA TYPHIMURIUM, Strain/Indicator: TA1535, Metabolic Activation: HAMSTER, LIVER, S-9, AROCLOR 1254 (30%), Method: PREINCUBATION): inactive; negative | mutagenic call (Test System: AMES SALMONELLA TYPHIMURIUM, Strain/Indicator: TA1535, Metabolic Activation: NONE, Method: PREINCUBATION): inactive; negative | mutagenic call (Test System: AMES SALMONELLA TYPHIMURIUM, Strain/Indicator: TA1535, Metabolic Activation: RAT, LIVER, S-9, AROCLOR 1254 (10%), Method: PREINCUBATION): inactive; negative | mutagenic call (Test System: AMES SALMONELLA TYPHIMURIUM, Strain/Indicator: TA1535, Metabolic Activation: RAT, LIVER, S-9, AROCLOR 1254 (30%), Method: PREINCUBATION): inactive; negative | mutagenic call (Test System: AMES SALMONELLA TYPHIMURIUM, Strain/Indicator: TA1537, Metabolic Activation: HAMSTER, LIVER, S-9, AROCLOR 1254 (10%), Method: PREINCUBATION): inactive; negative | mutagenic call (Test System: AMES SALMONELLA TYPHIMURIUM, Strain/Indicator: TA1537, Metabolic Activation: NONE, Method: PREINCUBATION): inactive; negative | mutagenic call (Test System: AMES SALMONELLA TYPHIMURIUM, Strain/Indicator: TA1537, Metabolic Activation: RAT, LIVER, S-9, AROCLOR 1254 (10%), Method: PREINCUBATION): inactive; negative | mutagenic call (Test System: Rhesus monkey peripheral blood lymphocytes, Strain/Indicator: HPRT/6-Thioguanine, Metabolic Activation: None, Method: Determined at 3-mo intervals from test subjects exposed to test chemical for 20 mo): inactive; negative

CCOC(=O)NCCOc1ccc(Oc2ccccc2)cc1
mutagenic call (Test System: Ames Salmonella typhimurium, Strain/Indicator: TA97, Metabolic Activation: None, Method: Plate incorporation): inactive; negative | mutagenic call (Test System: Ames Salmonella typhimurium, Strain/Indicator: TA97, Metabolic Activation: None, Method: Preincubation): inactive; negative | mutagenic call (Test System: Ames Salmonella typhimurium, Strain/Indicator: TA97, Metabolic Activation: Rat, Liver, S-9, Phenobarbital and beta-naphthoflavone, Method: Plate incorporation): inactive; negative | mutagenic call (Test System: Ames Salmonella typhimurium, Strain/Indicator: TA97, Metabolic Activation: Rat, Liver, S-9, Phenobarbital and beta-naphthoflavone, Method: Preincubation): inactive; negative | mutagenic call (Test System: Ames Salmonella typhimurium, Strain/Indicator: TA98, Metabolic Activation: None, Method: Plate incorporation): inactive; negative | mutagenic call (Test System: Ames Salmonella typhimurium, Strain/Indicator: TA98, Metabolic Activation: None, Method: Preincubation): inactive; negative | mutagenic call (Test System: Ames Salmonella typhimurium, Strain/Indicator: TA98, Metabolic Activation: Rat, Liver, S-9, Phenobarbital and beta-naphthoflavone, Method: Plate incorporation): inactive; negative | mutagenic call (Test System: Ames Salmonella typhimurium, Strain/Indicator: TA98, Metabolic Activation: Rat, Liver, S-9, Phenobarbital and beta-naphthoflavone, Method: Preincubation): inactive; negative | mutagenic call (Test System: Ames Salmonella typhimurium, Strain/Indicator: TA100, Metabolic Activation: None, Method: Plate incorporation): inactive; negative | mutagenic call (Test System: Ames Salmonella typhimurium, Strain/Indicator: TA100, Metabolic Activation: None, Method: Preincubation): inactive; negative | mutagenic call (Test System: Ames Salmonella typhimurium, Strain/Indicator: TA100, Metabolic Activation: Rat, Liver, S-9, Phenobarbital and beta-naphthoflavone, Method: Plate incorporation): inactive; negative | mutagenic call (Test System: Ames Salmonella typhimurium, Strain/Indicator: TA100, Metabolic Activation: Rat, Liver, S-9, Phenobarbital and beta-naphthoflavone, Method: Preincubation): inactive; negative | mutagenic call (Test System: Ames Salmonella typhimurium, Strain/Indicator: TA102, Metabolic Activation: None, Method: Plate incorporation): inactive; negative | mutagenic call (Test System: Ames Salmonella typhimurium, Strain/Indicator: TA102, Metabolic Activation: None, Method: Preincubation): inactive; negative | mutagenic call (Test System: Ames Salmonella typhimurium, Strain/Indicator: TA102, Metabolic Activation: Rat, Liver, S-9, Phenobarbital and beta-naphthoflavone, Method: Plate incorporation): inactive; negative | mutagenic call (Test System: Ames Salmonella typhimurium, Strain/Indicator: TA102, Metabolic Activation: Rat, Liver, S-9, Phenobarbital and beta-naphthoflavone, Method: Preincubation): inactive; negative | mutagenic call (Test System: Ames Salmonella typhimurium, Strain/Indicator: TA1535, Metabolic Activation: None, Method: Plate incorporation): inactive; negative | mutagenic call (Test System: Ames Salmonella typhimurium, Strain/Indicator: TA1535, Metabolic Activation: None, Method: Preincubation): inactive; negative | mutagenic call (Test System: Ames Salmonella typhimurium, Strain/Indicator: TA1535, Metabolic Activation: Rat, Liver, S-9, Phenobarbital and beta-naphthoflavone, Method: Plate incorporation): inactive; negative | mutagenic call (Test System: Ames Salmonella typhimurium, Strain/Indicator: TA1535, Metabolic Activation: Rat, Liver, S-9, Phenobarbital and beta-naphthoflavone, Method: Preincubation): inactive; negative | mutagenic call (Test System: Ames Salmonella typhimurium, Strain/Indicator: TA1537, Metabolic Activation: None, Method: Plate incorporation): inactive; negative | mutagenic call (Test System: Ames Salmonella typhimurium, Strain/Indicator: TA1537, Metabolic Activation: None, Method: Preincubation): inactive; negative | mutagenic call (Test System: Ames Salmonella typhimurium, Strain/Indicator: TA1537, Metabolic Activation: Rat, Liver, S-9, Phenobarbital and beta-naphthoflavone, Method: Plate incorporation): inactive; negative | mutagenic call (Test System: Ames Salmonella typhimurium, Strain/Indicator: TA1537, Metabolic Activation: Rat, Liver, S-9, Phenobarbital and beta-naphthoflavone, Method: Preincubation): inactive; negative | mutagenic call (Test System: Ames Salmonella typhimurium, Strain/Indicator: TA1538, Metabolic Activation: None, Method: Plate incorporation): inactive; negative | mutagenic call (Test System: Ames Salmonella typhimurium, Strain/Indicator: TA1538, Metabolic Activation: None, Method: Preincubation): inactive; negative | mutagenic call (Test System: Ames Salmonella typhimurium, Strain/Indicator: TA1538, Metabolic Activation: Rat, Liver, S-9, Phenobarbital and beta-naphthoflavone, Method: Plate incorporation): inactive; negative | mutagenic call (Test System: Ames Salmonella typhimurium, Strain/Indicator: TA1538, Metabolic Activation: Rat, Liver, S-9, Phenobarbital and beta-naphthoflavone, Method: Preincubation): inactive; negative
